Experimental data taken from paper PMC4403932 (Journal of Medicinal Chemistry, 2015).

Key:
Format in all cases: binding
BRD4(1) = target: T1, BRD4(1) (Homo sapiens, UniProt O60885); assay: Protein stability (thermal) shift assay, BRD4(1); details: compound 10 μM, protein 2 μM; average of triplicate; read-out: ΔTm Shift, BRD4(1)
T1 construct: made in house
Experimental: (§1) Thermal melting experiments were carried out using an Mx3005p real time PCR machine (Stratagene). Proteins were buffered in 10 mM HEPES, pH 7.5, 500 mM NaCl and assayed in a 96-well plate at a final concentration of 2 μM in 20 μL volume. Compounds were added at a final concentration of 10 or 100 μM. SYPRO Orange (Molecular Probes) was added as a fluorescence probe at a dilution of 1 in 1000. Excitation and emission filters for the SYPRO-Orange dye were set to 465 and 590 nm, respectively. The temperature was raised with a step of 3 °C per minute from 25 to 96 °C, and fluorescence readings were taken at each interval. The temperature dependence of the fluorescence during the protein denaturation process was approximated by the equation [drawing 1] where ΔuG is the difference in unfolding free energy between the folded and unfolded state, R is the gas constant, and yF and yU are the fluorescence intensity of the probe in the presence of completely folded and unfolded protein, respectively.[65] The baselines of the denatured and native states were approximated by a linear fit. The observed temperature shifts, ΔTm^obs, were recorded as the difference between the transition midpoints of sample and reference wells containing protein without ligand in the same plate and determined by nonlinear least-squares fit. Temperature shifts (ΔTm^obs) for three independent measurements per proteins/compound are summarized in Supporting Information Table S1.

BRD2(1) = target: T2, BRD2(1) (Homo sapiens, UniProt P25440); assay: Protein stability (thermal) shift assay, BRD2(1); details: compound 10 μM, protein 2 μM; average of triplicate
T2 construct: Fragments were tested in a thermal shift assay against bromodomains of the BET subfamily; made in house
Experimental: as §1

PCAF = target: T3, PCAF (Homo sapiens, UniProt Q92831); assay: Protein stability (thermal) shift assay, PCAF; details: compound 10 μM, protein 2 μM; average of triplicate
T3 construct: representative BRDs from other structural subfamilies (family I, PCAF); made in house
T3 sequence (Q92831 723-827 limits assumed): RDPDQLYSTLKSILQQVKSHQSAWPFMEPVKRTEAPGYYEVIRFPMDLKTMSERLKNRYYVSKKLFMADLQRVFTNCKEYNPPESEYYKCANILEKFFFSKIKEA
Experimental: as §1

CREBBP = target: T4, CREBBP (Homo sapiens, UniProt Q92793); assay: Protein stability (thermal) shift assay, CREBBP; details: compound 10 μM, protein 2 μM; average of triplicate; read-out: ΔTm Shift, CREBBP
T4 construct: small thermal shits (1.0–1.3 °C) for the bromodomain of CREBBP; made in house
Experimental: as §1

BRDT(2) = target: T5, BRDT(2) (Homo sapiens, UniProt Q58F21); assay: Protein stability (thermal) shift assay, BRDT(2); details: compound 10 μM, protein 2 μM; average of triplicate; read-out: ΔTm Shift, BRDT(2)
T5 construct: made in house
Experimental: as §1

PB1(5) = target: T6, PB1(5) (Homo sapiens, UniProt Q86U86); assay: Protein stability (thermal) shift assay, PB1(5); details: compound 10 μM, protein 2 μM; average of triplicate
T6 construct: made in house
Experimental: as §1

BRD2(2) = target: T7, BRD2(2) (Homo sapiens, UniProt P25440); assay: Protein stability (thermal) shift assay, BRD2(2); details: compound 10 μM, protein 2 μM; average of triplicate
T7 construct: made in house
Experimental: as §1

BRD3(1) = target: T8, BRD3(1) (Homo sapiens, UniProt Q15059); assay: Protein stability (thermal) shift assay, BRD3(1); details: compound 10 μM, protein 2 μM; average of triplicate
T8 construct: Fragments were tested in a thermal shift assay against bromodomains of the BET subfamily; made in house
Experimental: as §1

BRD3(2) = target: T9, BRD3(2) (Homo sapiens, UniProt Q15059); assay: Protein stability (thermal) shift assay, BRD3(2); details: compound 10 μM, protein 2 μM; average of triplicate
T9 construct: made in house
Experimental: as §1

BRD4(2) = target: T10, BRD4(2) (Homo sapiens, UniProt O60885); assay: Protein stability (thermal) shift assay, BRD4(2); details: compound 10 μM, protein 2 μM; average of triplicate
T10 construct: made in house
Experimental: as §1

BRDT(1) = target: T11, BRDT(1) (Homo sapiens, UniProt Q58F21); assay: Protein stability (thermal) shift assay, BRDT(1); details: compound 10 μM, protein 2 μM; average of triplicate
T11 construct: made in house
Experimental: as §1

BAZ2B = target: T12, BAZ2B (Homo sapiens, UniProt Q9UIF8); assay: Protein stability (thermal) shift assay, BAZ2B; details: compound 10 μM, protein 2 μM; average of triplicate; read-out: ΔTm Shift, BAZ2BA
T12 construct: representative BRDs from other structural subfamilies (family I, PCAF); family III, CREBBP; family IV, BRD9; family V, BAZ2B; made in house
T12 sequence (Q9UIF8 2060-2164 limits assumed): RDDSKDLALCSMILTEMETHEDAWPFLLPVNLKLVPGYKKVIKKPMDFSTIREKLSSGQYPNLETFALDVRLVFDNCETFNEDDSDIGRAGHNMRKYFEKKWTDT
Experimental: as §1

BRD9 = target: T13, BRD9 (Homo sapiens, UniProt Q9H8M2); assay: Protein stability (thermal) shift assay, BRD9; details: compound 10 μM, protein 2 μM; average of triplicate; read-out: ΔTm Shift, BRD9
T13 construct: made in house
T13 sequence (Q9H8M2 136-240 limits assumed): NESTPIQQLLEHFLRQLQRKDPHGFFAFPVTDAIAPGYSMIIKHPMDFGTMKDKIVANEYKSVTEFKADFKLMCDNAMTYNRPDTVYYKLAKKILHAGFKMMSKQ
Experimental: as §1

T2 sequence (P25440 74-180 limits assumed): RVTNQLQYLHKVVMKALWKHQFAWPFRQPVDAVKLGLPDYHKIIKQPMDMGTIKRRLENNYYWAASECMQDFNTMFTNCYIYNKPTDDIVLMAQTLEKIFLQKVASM
T8 sequence (Q15059 34-140 limits assumed): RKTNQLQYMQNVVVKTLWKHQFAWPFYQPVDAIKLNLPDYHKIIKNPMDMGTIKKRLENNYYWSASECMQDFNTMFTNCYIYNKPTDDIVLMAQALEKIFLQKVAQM
T6 sequence (Q86U86 653-763 limits assumed): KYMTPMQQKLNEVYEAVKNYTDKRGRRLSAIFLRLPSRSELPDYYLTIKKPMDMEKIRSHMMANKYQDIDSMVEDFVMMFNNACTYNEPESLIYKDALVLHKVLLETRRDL
T4 sequence (Q92793 1085-1192 limits assumed): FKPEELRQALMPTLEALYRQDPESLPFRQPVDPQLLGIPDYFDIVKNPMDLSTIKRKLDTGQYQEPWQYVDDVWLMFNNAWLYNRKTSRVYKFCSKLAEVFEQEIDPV
T7 sequence (P25440 344-453 limits assumed): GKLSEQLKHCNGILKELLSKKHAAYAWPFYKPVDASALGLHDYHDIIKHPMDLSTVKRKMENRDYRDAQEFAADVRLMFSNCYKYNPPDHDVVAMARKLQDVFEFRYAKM
T9 sequence (Q15059 306-415 limits assumed): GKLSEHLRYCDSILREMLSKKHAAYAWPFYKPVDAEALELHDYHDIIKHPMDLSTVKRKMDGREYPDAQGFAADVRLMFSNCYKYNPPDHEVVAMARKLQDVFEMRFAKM

Structure (SMILES)	ΔTm at 10 µM (BRD4(1))	ΔTm at 10 µM (BRD2(1))	ΔTm at 10 µM (PCAF)	ΔTm at 10 µM (CREBBP)	ΔTm at 10 µM (BRDT(2))	ΔTm at 10 µM (PB1(5))	ΔTm at 10 µM (BRD2(2))	ΔTm at 10 µM (BRD3(1))	ΔTm at 10 µM (BRD3(2))	ΔTm at 10 µM (BRD4(2))	ΔTm at 10 µM (BRDT(1))	ΔTm at 10 µM (BAZ2B)	ΔTm at 10 µM (BRD9)
Clc1nc(Cl)c2nc[nH]c2n1 [Compound 1, 2,6-dichloro-9H-purine]	1.6 °C	0.361 °C	-0.8 °C	1.6 °C	-0.234 °C	1.4 °C	-0.374 °C	0.7 °C	-0.159 °C	0.5 °C	-0.8 °C	-0.1 °C	
COc1ccc(-c2nc(N)nc3[nH]cnc23)cc1 [Compound 3b, 2-Amino-6-(4-methoxyphenyl)-9H-purine]	0.223 °C	-0.253 °C	0.0867 °C	0.663 °C	-0.167 °C	-0.08 °C	0.337 °C	-0.06 °C	0.4 °C	0.0133 °C	-0.133 °C	0.00333 °C	0 °C
Nc1nc(-c2ccc(Oc3ccccc3)cc2)c2nc[nH]c2n1 [Compound 3d, 2-Amino-6-(4-phenoxyphenyl)-9H-purine]	0.533 °C	-0.0833 °C	0.2 °C	0.6 °C	0.3 °C	0.0567 °C	0.5 °C	-0.127 °C	0.7 °C	0.5 °C	0.253 °C	0.273 °C	0.847 °C
Nc1nc(-c2ccc(COc3cccc(C(F)(F)F)c3)cc2)c2nc[nH]c2n1 [Compound 3g, 2-Amino-6-(4-(3′-(trifluoromethyl)phenoxymethyl)phenyl)-9H-purine]	-0.18 °C	-0.5 °C	0.1 °C	0.363 °C	0.271 °C	0.339 °C	0.459 °C	-0.125 °C	0.215 °C	-7.9 °C	-0.322 °C	-1 °C	-0.9 °C
COCCc1ccc(OCc2ccc(-c3nc(N)nc4[nH]cnc34)cc2)cc1 [Compound 3h, 2-Amino-6-(4-((4′-(2-methoxyethyl)phenoxy)methyl)phenyl)-9H-purine]	0.6 °C	0.354 °C	-0.2 °C	1 °C	0.7 °C	0.5 °C	1.2 °C	0.5 °C	2 °C	-2.8 °C	0.528 °C	-0.127 °C	-0.532 °C
Nc1nc(-c2ccc(OCc3ccccc3)c(Cl)c2)c2nc[nH]c2n1 [Compound 4a, 2-Amino-6-(4-benzyloxy-3-chlorophenyl)-9H-purine]	-0.15 °C	-0.5 °C	-0.2 °C	0.9 °C	0.224 °C	0.536 °C	-0.5 °C	-0.252 °C	-0.092 °C	-2.6 °C	-0.0553 °C	-0.367 °C	-1.7 °C
